Data from patent US12606541B2, “PPARg modulators and methods of use” (Eisai R&D Management Co., Ltd., priority 2020, dated 2026).

molecular target: T1, His6-TEV-PPARγ-(234-505) (Homo sapiens, UniProt P37231); assay: TR-FRET Assay to Measure Co-R Peptide Recruitment to PPARγ; assay type: biochemical; conditions: Co-R peptide recruitment to PPARγ; read-out: TR-FRET AC50
T1 construct: The His6-TEV-PPARγ-(234-505) protein for assay was expressed and purified; TEV cleavage site (N); made in house
T1 sequence (P37231 234-505): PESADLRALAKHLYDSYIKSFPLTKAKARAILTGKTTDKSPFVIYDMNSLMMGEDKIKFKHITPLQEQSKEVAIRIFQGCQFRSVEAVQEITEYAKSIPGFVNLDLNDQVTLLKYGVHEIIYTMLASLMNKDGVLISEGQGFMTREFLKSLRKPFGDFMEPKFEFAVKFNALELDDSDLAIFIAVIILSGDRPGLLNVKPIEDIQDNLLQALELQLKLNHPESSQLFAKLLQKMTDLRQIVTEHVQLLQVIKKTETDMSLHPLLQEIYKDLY
How it was run: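 His-tagged PPARγ (or controls) was preincubated with compound for 20 minutes at room temperature, then 5 nM anti-His terbium antibody and 200 nM FITC-labeled SMRT-ID2 corepressor peptide (final) were added for a further hour. TR-FRET signal was normalized to percent response using 500 nM T0070907 and DMSO controls.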

AC50, > 1 µM:
C[C@H](CNC(=O)C1CCN(C(=O)c2cc(-c3ccncc3)[nH]n2)CC1)c1ccccc1 [N-[(2S)-2-phenylpropyl]-1-[5-(pyridin-4-yl)-1H-pyrazole-3-carbonyl]piperidine-4-carboxamide]
O=C(NCc1ccc(Cl)c(Cl)c1)C1CCN(C(=O)c2cc(-c3cccnc3)[nH]n2)CC1 [N-[(3,4-dichlorophenyl)methyl]-1-[5-(pyridin-3-yl)-1H-pyrazole-3-carbonyl]piperidine-4-carboxamide]
COc1c(Cl)cccc1CNC(=O)C1CCN(C(=O)c2cc(-c3ccncc3)[nH]n2)CC1 [N-[(3-chloro-2-methoxyphenyl)methyl]-1-[5-(pyridin-4-yl)-1H-pyrazole-3-carbonyl]piperidine-4-carboxamide]
COc1cc(-c2cc(C(=O)N3CCC(C(=O)NCc4cccc(Cl)c4)CC3)n[nH]2)c(C)cn1 [N-[(3-chlorophenyl)methyl]-1-[5-(2-methoxy-5-methylpyridin-4-yl)-1H-pyrazole-3-carbonyl]piperidine-4-carboxamide]
O=C(NCc1cccc(Cl)c1)C1CCN(C(=O)c2cc(-c3ccncc3)[nH]n2)CC1 [N-[(3-chlorophenyl)methyl]-1-[5-(pyridin-4-yl)-1H-pyrazole-3-carbonyl]piperidine-4-carboxamide]
COc1cc(-c2cc(C(=O)N3CC4CC3CC4C(=O)NCc3cccc(Cl)c3)n[nH]2)c(F)cn1 (stereo not shown) [N-[(3-chlorophenyl)methyl]-2-[5-(5-fluoro-2-methoxypyridin-4-yl)-1H-pyrazole-3-carbonyl]-2-azabicyclo[2.2.1]heptane-5-carboxamide]
COc1cc(-c2cc(C(=O)N3CC4CCC(C3)C4C(=O)NCc3cccc(Cl)c3)n[nH]2)c(F)cn1 (stereo not shown) [N-[(3-chlorophenyl)methyl]-3-[5-(5-fluoro-2-methoxypyridin-4-yl)-1H-pyrazole-3-carbonyl]-3-azabicyclo[3.2.1]octane-8-carboxamide]
COc1cccc(CNC(=O)C2CCN(C(=O)c3cc(-c4ccncc4)[nH]n3)CC2)c1 [N-[(3-methoxyphenyl)methyl]-1-[5-(pyridin-4-yl)-1H-pyrazole-3-carbonyl]piperidine-4-carboxamide]
Cc1cccc(CNC(=O)C2CCCN(C(=O)c3cc(-c4ccncc4)[nH]n3)C2)c1 (stereo not shown) [N-[(3-methylphenyl)methyl]-1-[5-(pyridin-4-yl)-1H-pyrazole-3-carbonyl]piperidine-3-carboxamide]
O=C(N[C@@H]1CCN(Cc2ccccc2)C1)C1CCN(C(=O)c2cc(-c3cccnc3)[nH]n2)CC1 [N-[(3R)-1-benzylpyrrolidin-3-yl]-1-[5-(pyridin-3-yl)-1H-pyrazole-3-carbonyl]piperidine-4-carboxamide]
O=C(N[C@@H]1CCN(Cc2ccccc2)C1)C1CCN(C(=O)c2cc(-c3ccncc3)[nH]n2)CC1 [N-[(3R)-1-benzylpyrrolidin-3-yl]-1-[5-(pyridin-4-yl)-1H-pyrazole-3-carbonyl]piperidine-4-carboxamide]
O=C(N[C@H]1CCN(Cc2ccccc2)C1)C1CCN(C(=O)c2cc(-c3cccnc3)[nH]n2)CC1 [N-[(3S)-1-benzylpyrrolidin-3-yl]-1-[5-(pyridin-3-yl)-1H-pyrazole-3-carbonyl]piperidine-4-carboxamide]
Cc1nc(CNC(=O)C2CCN(C(=O)c3cc(-c4ccncc4)[nH]n3)CC2)sc1C [N-[(4,5-dimethyl-1,3-thiazol-2-yl)methyl]-1-[5-(pyridin-4-yl)-1H-pyrazole-3-carbonyl]piperidine-4-carboxamide]
Cc1cc(CNC(=O)C2CCN(C(=O)c3cc(-c4ccncc4)[nH]n3)CC2)sc1C [N-[(4,5-dimethylthiophen-2-yl)methyl]-1-[5-(pyridin-4-yl)-1H-pyrazole-3-carbonyl]piperidine-4-carboxamide]
COc1cc(Cl)ccc1CNC(=O)C1CCN(C(=O)c2cc(-c3ccncc3)[nH]n2)CC1 [N-[(4-chloro-2-methoxyphenyl)methyl]-1-[5-(pyridin-4-yl)-1H-pyrazole-3-carbonyl]piperidine-4-carboxamide]
O=C(NCc1ccc(Cl)cc1)C1CCN(C(=O)c2cc(-c3cccnc3)[nH]n2)CC1 [N-[(4-chlorophenyl)methyl]-1-[5-(pyridin-3-yl)-1H-pyrazole-3-carbonyl]piperidine-4-carboxamide]
O=C(NCc1ccc(Cl)cc1)C1CCN(C(=O)c2cc(-c3ccncc3)[nH]n2)CC1 [N-[(4-chlorophenyl)methyl]-1-[5-(pyridin-4-yl)-1H-pyrazole-3-carbonyl]piperidine-4-carboxamide]
O=C(NCc1nc(C2CC2)cs1)C1CCN(C(=O)c2cc(-c3ccncc3)[nH]n2)CC1 [N-[(4-cyclopropyl-1,3-thiazol-2-yl)methyl]-1-[5-(pyridin-4-yl)-1H-pyrazole-3-carbonyl]piperidine-4-carboxamide]
CCc1csc(CNC(=O)C2CCN(C(=O)c3cc(-c4ccncc4)[nH]n3)CC2)n1 [N-[(4-ethyl-1,3-thiazol-2-yl)methyl]-1-[5-(pyridin-4-yl)-1H-pyrazole-3-carbonyl]piperidine-4-carboxamide]
COc1ccc(CNC(=O)C2CCN(C(=O)c3cc(-c4ccncc4)[nH]n3)CC2)cc1 [N-[(4-methoxyphenyl)methyl]-1-[5-(pyridin-4-yl)-1H-pyrazole-3-carbonyl]piperidine-4-carboxamide]
Cc1csc(CNC(=O)C2CCN(C(=O)c3cc(-c4ccncc4)[nH]n3)CC2)n1 [N-[(4-methyl-1,3-thiazol-2-yl)methyl]-1-[5-(pyridin-4-yl)-1H-pyrazole-3-carbonyl]piperidine-4-carboxamide]
Cc1csc(CNC(=O)C2CCN(C(=O)c3cc(-c4ccncc4)[nH]n3)CC2)c1 [N-[(4-methylthiophen-2-yl)methyl]-1-[5-(pyridin-4-yl)-1H-pyrazole-3-carbonyl]piperidine-4-carboxamide]
CC(C)(C)c1csc(CNC(=O)C2CCN(C(=O)c3cc(-c4ccncc4)[nH]n3)CC2)n1 [N-[(4-tert-butyl-1,3-thiazol-2-yl)methyl]-1-[5-(pyridin-4-yl)-1H-pyrazole-3-carbonyl]piperidine-4-carboxamide]
CC(C)(C)c1ccc(CNC(=O)C2CCN(C(=O)c3cc(-c4ccncc4)[nH]n3)CC2)cc1 [N-[(4-tert-butylphenyl)methyl]-1-[5-(pyridin-4-yl)-1H-pyrazole-3-carbonyl]piperidine-4-carboxamide]
CN(Cc1ccc(C(C)(C)C)cc1)C(=O)C1CCN(C(=O)c2cc(-c3ccncc3)[nH]n2)CC1 [N-[(4-tert-butylphenyl)methyl]-N-methyl-1-[5-(pyridin-4-yl)-1H-pyrazole-3-carbonyl]piperidine-4-carboxamide]
Cc1cc(CNC(=O)C2CCN(C(=O)c3cc(-c4ccncc4)[nH]n3)CC2)cnc1C [N-[(5,6-dimethylpyridin-3-yl)methyl]-1-[5-(pyridin-4-yl)-1H-pyrazole-3-carbonyl]piperidine-4-carboxamide]
COc1ccc(Cl)cc1CNC(=O)C1CCN(C(=O)c2cc(-c3ccncc3)[nH]n2)CC1 [N-[(5-chloro-2-methoxyphenyl)methyl]-1-[5-(pyridin-4-yl)-1H-pyrazole-3-carbonyl]piperidine-4-carboxamide]
Cc1nc(CNC(=O)C2CCN(C(=O)c3cc(-c4ccncc4)[nH]n3)CC2)no1 [N-[(5-methyl-1,2,4-oxadiazol-3-yl)methyl]-1-[5-(pyridin-4-yl)-1H-pyrazole-3-carbonyl]piperidine-4-carboxamide]
CC(C)(C)c1ccc(CNC(=O)C2CCN(C(=O)c3cc(-c4ccncc4)[nH]n3)CC2)cn1 [N-[(6-tert-butylpyridine-3-yl)methyl]1-[5-(pyridin-4-yl)-1H-pyrazole-3-carbonyl]piperidine-4-carboxamide]
O=C(NCc1ccccc1)C1CCN(C(=O)c2cc(-c3ccncc3)[nH]n2)CC1 [N-benzyl-1-[5-(pyridin-4-yl)-1H-pyrazole-3-carbonyl]piperidine-4-carboxamide]
CN(Cc1ccccc1)C(=O)C1CCN(C(=O)c2cc(-c3ccncc3)[nH]n2)CC1 [N-benzyl-N-methyl-1-[5-(pyridin-4-yl)-1H-pyrazole-3-carbonyl]piperidine-4-carboxamide]
O=C(NC1CCCCC1)C1CCN(C(=O)c2cc(-c3ccncc3)[nH]n2)CC1 [N-cyclohexyl-1-[5-(pyridin-4-yl)-1H-pyrazole-3-carbonyl]piperidine-4-carboxamide]
O=C(NC1CCCC1)C1CCN(C(=O)c2cc(-c3ccncc3)[nH]n2)CC1 [N-cyclopentyl-1-[5-(pyridin-4-yl)-1H-pyrazole-3-carbonyl]piperidine-4-carboxamide]
O=C(NC1CC1)C1CCCN(C(=O)c2cc(-c3ccncc3)[nH]n2)C1 (stereo not shown) [N-cyclopropyl-1-[5-(pyridin-4-yl)-1H-pyrazole-3-carbonyl]piperidine-3-carboxamide]
